From patent US8404708B2, “Dual NK1/NK3 receptor antagonists” (Hoffmann-La Roche Inc., priority 2004, dated 2013)

How the values were obtained:
[1] = molecular target: T1, Recombinant human NK3 (hNK3) receptor (Homo sapiens, UniProt P29371); test: NK3 receptor binding, [3H]SR142801 displacement, membrane preparations; conditions: second value of the cell NK1/NK3; read-out: pKi NK3 (converted)
T1 construct: expressed in transfected cells
T1 sequence (P29371 1-465): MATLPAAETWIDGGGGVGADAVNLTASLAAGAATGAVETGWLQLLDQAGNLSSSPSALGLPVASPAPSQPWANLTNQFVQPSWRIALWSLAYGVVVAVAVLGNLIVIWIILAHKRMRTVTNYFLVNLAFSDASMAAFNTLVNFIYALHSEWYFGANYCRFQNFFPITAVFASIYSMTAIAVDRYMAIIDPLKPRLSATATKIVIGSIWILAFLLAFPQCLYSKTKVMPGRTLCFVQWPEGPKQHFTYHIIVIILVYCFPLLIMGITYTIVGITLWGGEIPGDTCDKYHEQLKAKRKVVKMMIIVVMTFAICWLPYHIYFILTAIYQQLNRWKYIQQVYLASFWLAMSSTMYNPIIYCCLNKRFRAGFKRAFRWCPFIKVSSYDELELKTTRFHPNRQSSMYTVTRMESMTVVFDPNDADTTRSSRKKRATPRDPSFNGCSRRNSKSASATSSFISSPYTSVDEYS
Summary of the method: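 Buffer: Tris-HCl 50 mM pH 7.4, BSA 0.1%, MnCl2 4 mM, phosphoramidon 1 μM. ~2.5 μg membrane/well, 90 min RT. NSB with SB222200 (10 μM). Vacuum filtration over 0.3% PEI-treated GF/C, cold Tris/BSA washes, scintillation count; duplicates, ≥2 experiments.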

human NK1 receptor = human NK1 receptor (Homo sapiens, UniProt P25103); test: NK1 receptor binding, [3H]substance P displacement, CHO cell membranes; conditions: first value of the cell NK1/NK3; read-out: pKi NK1 (converted)
Sequence of human NK1 receptor (P25103 whole entry): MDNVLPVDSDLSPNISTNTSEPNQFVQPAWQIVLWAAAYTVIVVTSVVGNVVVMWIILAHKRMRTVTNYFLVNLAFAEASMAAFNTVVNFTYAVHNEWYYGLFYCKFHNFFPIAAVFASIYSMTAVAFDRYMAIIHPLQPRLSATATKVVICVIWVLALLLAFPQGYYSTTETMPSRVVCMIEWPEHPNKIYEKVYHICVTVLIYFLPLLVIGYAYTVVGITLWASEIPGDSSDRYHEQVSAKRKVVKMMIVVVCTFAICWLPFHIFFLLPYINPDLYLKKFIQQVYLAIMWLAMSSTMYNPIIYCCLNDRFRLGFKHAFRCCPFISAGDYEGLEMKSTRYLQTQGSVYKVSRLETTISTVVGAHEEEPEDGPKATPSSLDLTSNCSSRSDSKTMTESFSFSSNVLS

SMILES | Ki [1] [nM] | Ki (human NK1 receptor) [nM]
CN(C(=O)C(C)(C)c1cc(C(F)(F)F)cc(C(F)(F)F)c1)c1cnc(N2C[C@@H](O)C[C@H]2CO)cc1-c1ccccc1F [Example 242, (2S,4S)-2-(3,5-Bis-trifluoromethyl-phenyl)-N-[4-(2-fluoro-phenyl)-6-(4-hydroxy-2-hydroxymethyl-pyrrolidin-1-yl)-pyridin-3-yl]-N-methyl-isobutyramide] | 6.92 | 1.32
CN(C(=O)C(C)(C)c1cc(C(F)(F)F)cc(C(F)(F)F)c1)c1cnc(N2C[C@@H](O)C[C@H]2CO)cc1-c1ccccc1C(F)(F)F [Example 243, (2S,4S)-2-(3,5-Bis-trifluoromethyl-phenyl)-N-[6-(4-hydroxy-2-hydroxymethyl-pyrrolidin-1-yl)-4-(2-trifluoromethyl-phenyl)-pyridin-3-yl]-N-methyl-isobutyramide] | 4.68 | 3.89
COc1ccccc1-c1cc(N2C[C@@H](O)C[C@H]2CO)ncc1N(C)C(=O)C(C)(C)c1cc(C(F)(F)F)cc(C(F)(F)F)c1 [Example 244, (2S,4S)-2-(3,5-Bis-trifluoromethyl-phenyl)-N-[6-(4-hydroxy-2-hydroxymethyl-pyrrolidin-1-yl)-4-(2-methoxy-phenyl)-pyridin-3-yl]-N-methyl-isobutyramide] | 7.08 | 1
CN(C(=O)C(C)(C)c1cc(C(F)(F)F)cc(C(F)(F)F)c1)c1cnc(N2C[C@@H](O)C[C@H]2CO)cc1-c1ccccc1C#N [Example 245, (2S,4S)-2-(3,5-Bis-trifluoromethyl-phenyl)-N-[4-(2-cyano-phenyl)-6-(4-hydroxy-2-hydroxymethyl-pyrrolidin-1-yl)-pyridin-3-yl]-N-methyl-isobutyramide] | 1.1 | 1.2
CN(C(=O)C(C)(C)c1cc(C(F)(F)F)cc(C(F)(F)F)c1)c1cnc(N2C[C@@H](O)C[C@H]2CO)cc1-c1ccccc1Br [Example 246, (2S,4S)-2-(3,5-Bis-trifluoromethyl-phenyl)-N-[4-(2-bromo-phenyl)-6-(4-hydroxy-2-hydroxymethyl-pyrrolidin-1-yl)-pyridin-3-yl]-N-methyl-isobutyramide] | 1.48 | 1.91
CN(C(=O)C(C)(C)c1cc(C(F)(F)F)cc(C(F)(F)F)c1)c1cnc(N2C[C@@H](O)C[C@H]2CO)cc1-c1ccccc1 [Example 247, (2S,4S)-2-(3,5-Bis-trifluoromethyl-phenyl)-N-[6-(4-hydroxy-2-hydroxymethyl-pyrrolidin-1-yl)-4-phenyl-pyridin-3-yl]-N-methyl-isobutyramide] | 15.8 | 1.51
Cc1cc(-c2cc(N3C[C@@H](O)C[C@H]3CO)ncc2N(C)C(=O)C(C)(C)c2cc(C(F)(F)F)cc(C(F)(F)F)c2)ccc1F [Example 248, (2S,4S)-2-(3,5-Bis-trifluoromethyl-phenyl)-N-[4-(4-fluoro-3-methyl-phenyl)-6-(4-hydroxy-2-hydroxymethyl-pyrrolidin-1-yl)-pyridin-3-yl]-N-methyl-isobutyramide] | 27.5 | 2.19
CN(C(=O)C(C)(C)c1cc(C(F)(F)F)cc(C(F)(F)F)c1)c1cnc(N2C[C@@H](O)C[C@H]2CO)cc1-c1cccc(F)c1 [Example 251, (2S,4S)-2-(3,5-Bis-trifluoromethyl-phenyl)-N-[4-(3-fluoro-phenyl)-6-(4-hydroxy-2-hydroxymethyl-pyrrolidin-1-yl)-pyridin-3-yl]-N-methyl-isobutyramide] | 8.91 | 1.32
CN(C(=O)C(C)(C)c1cc(C(F)(F)F)cc(C(F)(F)F)c1)c1cnc(N2C[C@@H](O)C[C@H]2CO)cc1-c1ccc(Cl)c(Cl)c1 [Example 252, (2S,4S)-2-(3,5-Bis-trifluoromethyl-phenyl)-N-[4-(3,4-dichloro-phenyl)-6-(4-hydroxy-2-hydroxymethyl-pyrrolidin-1-yl)-pyridin-3-yl]-N-methyl-isobutyramide] | 6.17 | 1.66
CN(C(=O)C(C)(C)c1cc(C(F)(F)F)cc(C(F)(F)F)c1)c1cnc(N2C[C@@H](O)C[C@H]2CO)cc1-c1cccc(Cl)c1Cl [Example 253, (2S,4S)-2-(3,5-Bis-trifluoromethyl-phenyl)-N-[4-(2,3-dichloro-phenyl)-6-(4-hydroxy-2-hydroxymethyl-pyrrolidin-1-yl)-pyridin-3-yl]-N-methyl-isobutyramide] | 3.16 | 2.88
CN(C(=O)C(C)(C)c1cc(C(F)(F)F)cc(C(F)(F)F)c1)c1cnc(N2C[C@@H](O)C[C@H]2CO)cc1-c1ncccc1Cl [Example 256, (2S,4S)-2-(3,5-Bis-trifluoromethyl-phenyl)-N-[3-chloro-6′-(4-hydroxy-2-hydroxymethyl-pyrrolidin-1-yl)-[2,4′]bipyridinyl-3′-yl]-N-methyl-isobutyramide] | 20 | 2.4
Cc1cc(F)ccc1-c1cc(N2C[C@@H](O)C[C@@H]2CO)ncc1N(C)C(=O)C(C)(C)c1cc(C(F)(F)F)cc(C(F)(F)F)c1 [Example 259, (2R,4S)-2-(3,5-Bis-trifluoromethyl-phenyl)-N-[4-(4-fluoro-2-methyl-phenyl)-6-(4-hydroxy-2-hydroxymethyl-pyrrolidin-1-yl)-pyridin-3-yl]-N-methyl-isobutyramide] | 15.1 | 1.66
Cc1ccccc1-c1cc(N2C[C@@H](O)C[C@@H]2CO)ncc1N(C)C(=O)C(C)(C)c1cc(C(F)(F)F)cc(C(F)(F)F)c1 [Example 260, (2R,4S)-2-(3,5-Bis-trifluoromethyl-phenyl)-N-[6-(4-hydroxy-2-hydroxymethyl-pyrrolidin-1-yl)-4-o-tolyl-pyridin-3-yl]-N-methyl-isobutyramide] | 17.8 | 1.41
Cc1ccccc1-c1cc(N2CC[C@H](O)[C@H]2CO)ncc1N(C)C(=O)C(C)(C)c1cc(C(F)(F)F)cc(C(F)(F)F)c1 [Example 261, (2R,3S)-2-(3,5-Bis-trifluoromethyl-phenyl)-N-[6-(3-hydroxy-2-hydroxymethyl-pyrrolidin-1-yl)-4-o-tolyl-pyridin-3-yl]-N-methyl-isobutyramide] | 0.912 | 1.29
COc1ccccc1-c1cc(N2CC[C@H](O)[C@H]2CO)ncc1N(C)C(=O)C(C)(C)c1cc(C(F)(F)F)cc(C(F)(F)F)c1 [Example 263, (2R,3S)-2-(3,5-Bis-trifluoromethyl-phenyl)-N-[6-(3-hydroxy-2-hydroxymethyl-pyrrolidin-1-yl)-4-(2-methoxy-phenyl)-pyridin-3-yl]-N-methyl-isobutyramide] | 1.35 | 1.02

Second part, the compound after the results:

Ki [1] [nM] | Ki (human NK1 receptor) [nM] | SMILES
1.02 | 2 | Cc1c(F)cccc1-c1cc(N2C[C@@H](O)C[C@H]2CO)ncc1N(C)C(=O)C(C)(C)c1cc(C(F)(F)F)cc(C(F)(F)F)c1 [Example 249, (2S,4S)-2-(3,5-Bis-trifluoromethyl-phenyl)-N-[4-(3-fluoro-2-methyl-phenyl)-6-(4-hydroxy-2-hydroxymethyl-pyrrolidin-1-yl)-pyridin-3-yl]-N-methyl-isobutyramide]
2 | 1.95 | Cc1ccc(F)cc1-c1cc(N2C[C@@H](O)C[C@H]2CO)ncc1N(C)C(=O)C(C)(C)c1cc(C(F)(F)F)cc(C(F)(F)F)c1 [Example 250, (2S,4S)-2-(3,5-Bis-trifluoromethyl-phenyl)-N-[4-(5-fluoro-2-methyl-phenyl)-6-(4-hydroxy-2-hydroxymethyl-pyrrolidin-1-yl)-pyridin-3-yl]-N-methyl-isobutyramide]
3.09 | 0.977 | CN(C(=O)C(C)(C)c1cc(C(F)(F)F)cc(C(F)(F)F)c1)c1cnc(N2C[C@@H](O)C[C@H]2CO)cc1-c1cccnc1Cl [Example 254, (2S,4S)-2-(3,5-Bis-trifluoromethyl-phenyl)-N-[2-chloro-6′-(4-hydroxy-2-hydroxymethyl-pyrrolidin-1-yl)-[3,4′]bipyridinyl-3′-yl]-N-methyl-isobutyramide]
10.7 | 0.955 | Cc1ncccc1-c1cc(N2C[C@@H](O)C[C@H]2CO)ncc1N(C)C(=O)C(C)(C)c1cc(C(F)(F)F)cc(C(F)(F)F)c1 [Example 255, (2S,4S)-2-(3,5-Bis-trifluoromethyl-phenyl)-N-[6′-(4-hydroxy-2-hydroxymethyl-pyrrolidin-1-yl)-2-methyl-[3,4′]bipyridinyl-3′-yl]-N-methyl-isobutyramide]
10 | 2 | Cc1cc(F)ccc1-c1cc(N2C[C@H](O)C[C@@H]2CO)ncc1N(C)C(=O)C(C)(C)c1cc(C(F)(F)F)cc(C(F)(F)F)c1 [Example 258, (2R,4R)-2-(3,5-Bis-trifluoromethyl-phenyl)-N-[4-(4-fluoro-2-methyl-phenyl)-6-(4-hydroxy-2-hydroxymethyl-pyrrolidin-1-yl)-pyridin-3-yl]-N-methyl-isobutyramide]
9.77 | 7.94 | CN(C(=O)C(C)(C)c1cc(C(F)(F)F)cc(C(F)(F)F)c1)c1cnc(N2CC[C@H](O)[C@H]2CO)cc1-c1ccccc1C(F)(F)F [Example 262, (2R,3S)-2-(3,5-Bis-trifluoromethyl-phenyl)-N-[6-(3-hydroxy-2-hydroxymethyl-pyrrolidin-1-yl)-4-(2-trifluoromethyl-phenyl)-pyridin-3-yl]-N-methyl-isobutyramide]
